This is an account of results in PMC10819887, “Production of AFB1 High-Specificity Monoclonal Antibody by Three-Stage Screening Combined with the De-Homologation of Antibodies and the Development of High-Throughput icELISA” (Toxins, 2023).

Values joined by “and” are separate entries in the source; they are usually repeats but may differ in a detail not shown here. Equal values may be shown once.

The IC50 is the midpoint of a concentration-inhibition curve. Lower therefore signals greater potency in that assay.

In test [1] the test system is anti-AFB1 mAb (ZFG8). It counts as binding, mouse.
For test [2], the system named is ZFG8 monoclonal antibody. The experiment in a line: icELISA working-condition optimization and standard curves (ZFG8, AFB1-BSA). In kind it is binding, mouse.

In the case of aflatoxin B1 [AFB1], in test [1], the “Cross-Reactivity (%)” value came to 100% and the “IC50” value is given as 0.3162 ng/mL. For the same substance, in test [2], the IC20-IC80 was 0.04197 to 0.6299 ng/mL and 0.03329 to 0.9399 ng/mL; the “IC20-IC80 (linear detection range)” value was 0.0422 to 1.293 ng/mL. For the same substance, the IC50 in test [2] (pH 7.4) came to 0.1811 ng/mL.
